Legend:
glmS ribozyme [1] = assay: Electrophoretic in-line probing of analog binding to glmS ribozyme
glmS ribozyme [2] = assay: High-throughput FRET fluorescence screen of substrate cleavage by bimolecular glmS ribozyme (Example 1, Method 1); assay type: biochemical; settings: for Fl21 h/Flg h: fluorescence ratio, high-throughput fluorescence screen, 21 h
Method: The naturally occurring glmS RNA element catalyzes self-cleavage in the presence of modest concentrations (>100 μM) of glucosamine-6-phosphate (Gln6P, FIG. 1A). In the absence of this important metabolite, no cleavage activity is observed. Although the natural sequence of the glmS element forms a unimolecular cis-cleaving ribozyme, active glmS ribozyme can also be constructed as a biomolecular […] ribozyme. In this format, the cleaved strand, termed the substrate, includes the 5′ base pairs that form half of the pairing element 1 (P1) and the conserved nucleotides upstream P1 (FIG. 1B). The non-cleaved ribozyme strand includes the 3′ half of P1 and the remaining sequence of the glmS element. Using this biomolecular format, the 16-nucleotide substrate strand was labeled at the 3′ and the 5′ ends with the fluorescently probes fluorescein (F1) and cy3, respectively. In an uncleaved substrate RNA, emission of the excited state fluorescein is quenched by the enforced proximity of the cy3 quencher. Upon cleavage in the presence of the Gln6P system, the binding of Gln6P (or related derivatives) to the glmS riboswitch can be rapidly screened using standard high-throughput techniques.
After a minimum of 10 hours incubation, the fluorescence intensity of FI increased ˜4 fold in the presence of 160 μM glucosamine-6-phosphate, whereas no observable change was detected in the absence of effector (FIG. 2). […] To further explore the discriminatory limits of this detection system, a library of sixteen Gln6P derivatives was also screened. The resulting glmS binding activities correspond well with the binding activities independently determined by gel electrophoresis methods (Table 1). Detection systems are also being used to screen a novel library of 20,000 compounds (Microsource Discovery Systems, Inc.) unrelated to Gln6P for binding the glmS ribozyme.

glmS riboswitch = settings: cited from earlier work
[3] = test system: bimolecular glmS ribozyme; assay: High-throughput glmS assay, FRET in 384-well plates (Example 2); assay type: biochemical, S. aureus; settings: for relative fluorescence (relative to time zero): 200 μM
Method: High-throughput glmS assay. High-throughput fluorescence assay validation and screening was performed in 384-well black polypropylene plates (Corning part number 3677) in a 10 μL solution of 50 mM HEPES (pH 7.5 at 25° C.), 10 mM MgCl2, and 200 mM KCl, with 0.01% SDS where indicated in the text. A Tecan Aquarius multichannel pipettor (Tecan Group, LTD, Switzerland) was used for automated liquid handling. In a typical experiment, a reaction mixture containing buffer and both RNA domains was transferred into the assay plates with the liquid handler, the fluorescence was measured, and the reaction was initiated by the addition of ˜50 nl of either GlcN6P, an analog of GlcN6P, or a library compound suspended at 10 mM in DMSO using the Tecan pin tool (˜50 μM final concentration of compound). Plates were sealed with non-breathable sealing tape and protected from light for the specified incubation time, at which point the plate was briefly centrifuged and the fluorescence measured. All multiplate fluorescence measurements were conducted with a Wallach Envision (Perkin Elmer, Wellesly, Mass.) plate reader with a 480 nm excitation filter (30 nm bandwidth) and a 535 nm emission filter (25 nm bandwidth).
To enable FRET detection of cleavage, the substrate was synthesized with a 5-(and 6-)-carboxyfluorescein (5/6-FAM) donor at the 3′ end and a Cy3™ acceptor at the 5′ end. When excited at 485 nm, the 5/6-FAM donor normally emits at a maximum wavelength of 526 nm. When the substrate strand is intact, however, the fluorescence of 5/6-FAM is reduced presumably due to quenching by the proximal Cy3™ acceptor. After addition of GlcN6P and cleavage of the substrate strand, the two product strands dissociate, relieving the proximity of 5/6-FAM and Cy3™, with a concomitant increase of 5/6-FAM fluorescence. Similar fluorescence-based systems have been used to detect ribozyme cleavage in real time (Singh et al., RNA 1999; 5: 1348-1356; Hanne et al., Nucleosides Nucleotides 1998; 17: 1835-1850). Using this FRET detection strategy, the addition of 40 μM GlcN6P induces an increase in the fluorescence signal of greater than 6 fold within 20 minutes (FIG. 7B). The modest burst in fluorescence increase could be due to a conformational change in the substrate that occurs upon ligand binding. Tertiary contacts between ribozyme and substrate would constrain the substrate to a greater extent compared to that caused by the short base paired region, thus increasing the average distance between donor and acceptor. Importantly, no fluorescence increase was observed over this time course in the absence of either GlcN6P or the ribozyme.
To facilitate rapid solution-based measurement of cleavage for large compound libraries, the assay conditions were optimized for automated liquid handling and fluorescence measurement in 384-well microplates. To reduce demand for enzyme and substrate RNAs, the concentrations of these molecules were varied to determine the minimal concentration of each that can be used to give a reproducible and statistically significant increase in the fluorescent signal. At 10 nM of each strand, a 4-fold increase in fluorescence was observed after 68 hours when 100 μM GlcN6P was present (FIG. 7C). […] At incubation times less than 48 hours, the increase in fluorescence was noticeably less, most likely because the concentration of the two RNA strands is well below the measured dissociation constant of 0.2 μM, slowing the observed cleavage rate. […]

[4] = test system: bimolecular glmS ribozyme; assay: Kinetic assay with 5'-radiolabeled substrate; assay type: biochemical, S. aureus; settings: 0.5 μM ribozyme, 200 μM GlcN6P, saturating substrate, 25° C.
Method: (§1) Low-throughput glmS kinetic analyses. All kinetic assays were conducted in 50 mM HEPES (pH 7.5 at 25° C.), 10 mM MgCl2, and 200 mM KCl. To initiate the reaction, GlcN6P was added to give a final concentration of 200 μM. Kinetic assays with radiolabeled substrate were performed as described previously (Soukup, Nucleic Acids Res 2006; 34: 968-975). Rate constants were established by plotting the natural logarithm of the fraction of substrate remaining uncleaved versus time, and then determining the negative slope of the resulting line. For the highest rate constants, only the initial phase of the plots were used because ˜20% of the RNA substrate remained uncleavable. Single reaction FRET-based kinetic assays were performed with λexcit=488 nm (slit width=1 nm), λemit=523 nm (slit width=8 nm).
Although the glmS ribozyme sequence is highly conserved among many bacterial species, the S. aureus sequence was chosen for screening development because of its clinical importance. To facilitate detection of cleavage, the natural self-cleaving glmS ribozyme was converted to a bimolecular ribozyme (FIG. 6B) in which separate substrate and ribozyme oligonucleotides associate via a truncated P1 stem. […]

[5] = test system: bimolecular glmS ribozyme; assay: Single reaction FRET-based kinetic assay of glmS cleavage; assay type: biochemical, S. aureus; settings: 40 μM GlcN6P, within 20 minutes
Method: as §1, with “Single reaction FRET-based kinetic assays were performed with λexcit=488 nm (slit width=1 nm), λemit=523 nm (slit width=8 nm).” left out
To enable FRET detection of cleavage, the substrate was synthesized with a 5-(and 6-)-carboxyfluorescein (5/6-FAM) donor at the 3′ end and a Cy3™ acceptor at the 5′ end. […] When the substrate strand is intact, however, the fluorescence of 5/6-FAM is reduced presumably due to quenching by the proximal Cy3™ acceptor. After addition of GlcN6P and cleavage of the substrate strand, the two product strands dissociate, relieving the proximity of 5/6-FAM and Cy3™, with a concomitant increase of 5/6-FAM fluorescence. Similar fluorescence-based systems have been used to detect ribozyme cleavage in real time (Singh et al., RNA 1999; 5: 1348-1356; Hanne et al., Nucleosides Nucleotides 1998; 17: 1835-1850). […]

glmS ribozyme [6] = assay: PAGE / electrophoretic analysis of glmS ribozyme activation; assay type: biochemical, S. aureus; settings: after incubating for 2 hours
Method: This cutoff for functional compounds (“hits”) of 2.5-fold increased fluorescence represents a statistically significant 18 standard deviations over the mean fluorescence value in the absence of ligand (“NL”). […] A similar case exists for glucosamine, which induces a 3.0-fold increase in fluorescence after 44 hours, even though its measured affinity for the ribozyme is more than 100-fold lower than GlcN6P (McCarthy et al., Chem Biol 2005; 12: 1221-1226). Thus, the fluorescent report from the high-throughput screen accurately reflects binding activity for the glmS ribozyme.
Each of the five compounds identified was retested for glmS activation with either the fluorescence screen or by electrophoretic methods. […] Moreover, these types of infrequent false-positive hits have been observed for other fluorescence-based high-throughput screens (Zhang et al., J Biomol Screen 2005; 10: 695-704) and can readily be confirmed or refuted in our case with the secondary ribozyme cleavage assay (Soukup and Breaker, RNA 1999; 5: 1308-1325). One possible explanation for the false positives is that they quench or otherwise modify the fluorescent label on the RNA over the 44 hour time course, or that the compounds become fluorescent over time. Nevertheless, the identification of glucosamine confirms that this screen can identify even low affinity glmS-activating compounds from complex compound libraries.

[7] = test system: unimolecular glmS ribozyme; settings: cited from earlier work
ribD RNA = settings: cited from earlier work

Compound: COC1OC(COP(=O)(O)O)C(O)C(O)C1N (stereo not drawn) [β-MeO-Gln 6P]
- Activity by electrophoretic in-line probing (glmS ribozyme [1]): No
- Fl21 h/Flg h (glmS ribozyme [2]): 1.02

Compound: N[C@H]1C(O)O[C@H](COP(=O)(O)O)[C@@H](O)[C@@H]1O (some centres unmarked) [Gln6P, glucosamine-6-phosphate]
- concentration that activates cleavage (glmS riboswitch; concentrations as low as): ≥ 1 µM
- single-turnover rate constant (glmS riboswitch; previously reported): 1 min⁻¹
- Kd (glmS riboswitch; read-out: apparent KD): 200 µM
- Activity by electrophoretic in-line probing (glmS ribozyme [1]): Yes
- increase in fluorescence ([3]; 10 nM of each strand, 100 μM GlcN6P, after 68 hours, 0.01% SDS): 4 fold
- relative fluorescence (relative to time zero) ([3]; 21 hours): 3.5
- relative fluorescence (relative to time zero) ([3]; 44 hours): 3.4
- increase in fluorescence ([3]; screen of library of twelve GlcN6P analogs): 3.5 fold
- increase in fluorescence intensity of Fl (glmS ribozyme [2]; 160 μM glucosamine-6-phosphate, minimum of 10 hours incubation): ~4 fold
- Fl21 h/Flg h (glmS ribozyme [2]): 3.36
- apparent rate constant of cleavage [4]: 0.25 min⁻¹
- increase in the fluorescence signal [5]: greater than 6 fold

Compound: O=P(O)(O)OC[C@H]1OC(O)[C@H](O)[C@@H](O)[C@H]1O (some centres unmarked) [Gal6P]
- Fl21 h/Flg h (glmS ribozyme [2]): 1.69

Compound: N[C@H]1C(O)O[C@H](CO)[C@@H](O)[C@@H]1O (some centres unmarked) [glucosamine]
- increase in fluorescence ([3]; after 44 hours): 3.0 fold
- cleavage on a gel (glmS ribozyme [6]): stimulates detectable cleavage
- activity in previously described glmS screen ([7]; after 30 minutes): no observable activity
- activation of the glmS ribozyme [7]: cannot activate it

Compound: N[C@H]1C(O)O[C@H](CO)[C@@H](O)[C@@H]1O (some centres unmarked) [Gln com]
- Activity by electrophoretic in-line probing (glmS ribozyme [1]): Yes
- Fl21 h/Flg h (glmS ribozyme [2]): 1.87

Compound: N[C@@H]1[C@@H](O)[C@H](O)[C@@H](COP(=O)(O)O)O[C@@H]1O [Gln6P com]
- Activity by electrophoretic in-line probing (glmS ribozyme [1]): Yes
- Fl21 h/Flg h (glmS ribozyme [2]): 2.24

Compound: CC(=O)N[C@H]1C(O)O[C@H](COP(=O)(O)O)[C@@H](O)[C@@H]1O (some centres unmarked) [AcNGln 6P]
- Activity by electrophoretic in-line probing (glmS ribozyme [1]): Weakly
- Fl21 h/Flg h (glmS ribozyme [2]): 2.28

Compound: Cc1cc2nc3c(=O)[nH]c(=O)nc-3n(C[C@H](O)[C@H](O)[C@H](O)COP(=O)(O)O)c2cc1C [FMN, flavin mononucleotide]
- Kd (ribD RNA; read-out: apparent KD): ~0.005 µM

Compound: CNC1C(O)OC(COP(=O)(O)O)C(O)C1O (centres unmarked) [MeN-Gln 6P]
- Activity by electrophoretic in-line probing (glmS ribozyme [1]): Yes
- Fl21 h/Flg h (glmS ribozyme [2]): 3.49

Compound: Cc1cc2nc3c(=O)[nH]c(=O)nc-3n(C[C@H](O)[C@H](O)[C@H](O)CO)c2cc1C [riboflavin]
- discrimination against ligand relative to FMN (ribD RNA): approximately three orders of magnitude

Compound: O=C[C@H](O)[C@@H](O)[C@H](O)[C@H](O)COP(=O)(O)O [glucose-6-phosphate]
- activation of the glmS ribozyme [7]: cannot activate it

Compound: C[N+](C)(C)C1C(O)OC(COP(=O)(O)O)C(O)C1O (centres unmarked) [Me3N-Gln 6P]
- Activity by electrophoretic in-line probing (glmS ribozyme [1]): No
- Fl21 h/Flg h (glmS ribozyme [2]): 1.27
